Data on 1 compound can be found in US6037333A, “Microbe-inhibiting compositions” (Trustees of Tufts College, priority 1998, dated 2000).

Holding throughout (assay type): cell-based
Assay [1] has as its system Acanthamoeba. In words: Acanthamoeba-induced CPE assay, primary cultures of corneal epithelium. To be noted: primary cultures as target cells. The method, then:
In vitro cytopathic assays were performed using cell cultures of corneal epithelium as target cells. Primary cell cultures of rabbit corneal epithelium were prepared according to published protocols (M. M. Jumblatt, Invest. Opthalmol. Visual Sci. 24:1139-43, 1983) using rabbit eyes from Pel-Freez Biologicals (N. Panjwani et al., Invest. Opthalmol. Visual Sci. 31:689-695, 1990) (Rogers, AK). Generally, seventy-five eyes were processed at a time. Primary cultures have limited life span and can only be passaged 2 to 3 times without significant alteration in cell morphology.
To characterize the role of carbohydrate-mediated host-parasite interactions in the Acanthamoeba-induced cytotoxicity of host cells, in vitro cytopathic assays were performed using both primary and immortalized cultures of corneal epithelium as host cells. Immortalized cells were assayed as confluent cultures in 24-well plates, and primary cells were assayed as confluent cells in 35-mm dishes or 6-well plates.
The parasites (>95% trophozoites) were rinsed three times in a serum-free Eagle's minimum essential medium supplemented with 0.4% bovine serum albumin (SFB) and aliquots of the parasite suspension (0.2×10^5 to 1×10^6 parasites/ml SFB medium, 300 μl/well for 24-well plates and 500 μl/well for 6-well plates or 35-mm dishes) were added to wells of confluent epithelial cultures which had been rinsed and preincubated in SFB medium for 2 hours. The plates were incubated at 37° C. in a CO2 incubator and periodically examined under a phase-contrast microscope for the presence of cell-free plaques in the monolayer for up to 28-30 hours. Control wells contained host cells without the parasites. At the end of the incubation period, the cultures were stained with Giemsa (Diff-Quik, Dade Diagnostic Inc., Aguada, PR). Approximate cell density in each well was estimated by scanning the stained plates in a calibrated, computer-assisted Bio-Image Scanner (Millipore, Ann Arbor, Mich.). Cytopathic effect (CPE) was expressed as percentage of the optical density by the following formula: [formula]
Primary cultures were less susceptible to amoeba-induced CPE, requiring 1×10^6 parasites/ml to completely destroy the monolayer within 24 hours. This parasite concentration was five times higher than that required to produce the same effect when immortalized cultures were used as target host cells.

Assay [2] deals with Acanthamoeba-conditioned medium (ACM). In words: CPE assay with Acanthamoeba-conditioned medium (ACM). The method, then: To determine whether the mechanism modulating the CPE produced by intact amoeba and amoeba-conditioned medium (ACM) are distinct, CPE and assays were also performed using ACM in the presence and the absence of saccharides. To produce ACM, exponentially growing parasites (>95% trophozoites) in PYG media (Proteose Peptone-yeast extract-glucose , J. T. Bornes et al., J. Parasitol. 56:904-906, 1970) were rinsed twice with SFB medium and incubated in serum-free SFB medium at concentrations between 2×10^5 to 1×10^6 cells/ml in a CO2 incubator for 24 hours. After removing the parasites by centrifugation, each supernatant was analyzed for its ability to induce CPE. Saccharides (α-Man and GIcNAc, 50 mM) were added either to the ACM after it was produced or to serum-free medium used to produce an ACM. The ACM produced in the presence of the saccharides was also analyzed after removal of the saccharides by centrifugation through Centricon 3 microconcentrators (Amicon Inc., Beverly, Mass.).
To determine the role of the parasitic secretory factors in the cytopathogenic mechanism, chromium release and CPE assays were performed using ACM. In this study, parasites were incubated in the SFB media for 24 hours, centrifuged to remove parasites and the conditioned medium was tested for its ability to produce cytolysis and CPE. The ACM produced remarkable CPE. […] Approximately 6 to 8 hours following the incubation of the monolayer with the ACM, the cell sheet at the edges of the monolayer began to lift and roll inwards and eventually the entire monolayer lifted en bloc from the dish. These observations were similar to those seen when the monolayers were incubated with trophozoites in the presence of α-Man. Unlike the CPE induced by intact amoeba, the CPE induced by the ACM was not inhibited by either α-Man or GlcNAc when the sugars were added to the ACM after it was produced. In the next set of experiments, ACM was produced in the presence of α-Man or GIcNAc and was tested for CPE-inducing activity. […] In addition, the filtrate and retentate obtained after filtering the ACM in Centricon 3 microconcentrators were tested for CPE-inducing activity. When the ACM was produced in the absence of either sugar, substantially all of the CPE-inducing activity was found in the retentate obtained after Centricon filtration.

The subject of assay [3] is Acanthamoeba. In words: Adhesion of amoebae to corneal epithelial cell monolayer. To be noted: saccharide present in media.

In the case of `CO[C@H]1O[C@H](CO)[C@@H](O)[C@H](O)[C@@H]1O` [Methyl-α-D-mannopyranoside], the “Inhibition of amoeba-induced CPE” value in the assay on Acanthamoeba [1] is reported as “inhibited CPE”. The “CPE-inducing activity of ACM produced in SFB containing the saccharide” value in assay [2] (saccharide 50 mM in medium used to produce ACM) is “strongly induced CPE”. In addition, the “Inhibition of ACM-induced CPE” value in assay [2] (sugar (50 mM) added to the ACM after it was produced) is “not inhibited”. Also, the “Adhesion of amoebae to the cell monolayer in presence of saccharide” value with Acanthamoeba [3] is on record as “did not adhere”.
